According to US20200331950A1, “SGLTS INHIBITOR AND APPLICATION THEREOF” (SHANDONG DANHONG PHARMACEUTICAL CO., LTD., priority 2018, published 2020):
Marks after values point to notes of the source that are not given here.

How the values were obtained:
[1] = In vivo pharmacokinetics in rats; settings: male SD rats; for Oral DNAUC (AUCPO/Dose) / bioavailability: oral 2 mg/kg; for clearance / half-life / Vd / bioavailability / Cmax: rat, plasma; for clearance / half-life / Vd / Cmax: intravenous 1 mg/kg or oral 2 mg/kg; for clearance: read-out: Cl (clearance rate); for half-life: read-out: T1/2 (half-life) (converted); for Vd: read-out: Vdss (distribution volume); for bioavailability: intravenous 1 mg/kg, read-out: F % (oral bioavailability); for Cmax: single administration
Text: Study on the In Vivo Pharmacokinetics in Rats
The purpose of the experiment: Male SD rats were used as test animals and were given a single administration to determine the plasma concentration of the compound and evaluate the pharmacokinetic behavior.
Experimental method: Six healthy adult male SD rats were divided into 2 groups, with 3 rats in an intravenous injection group and 3 rats in an oral administration group. In the intravenous injection group, the test compound was mixed with an appropriate amount of vehicle (10% N-methyl pyrrolidone (NMP)/10% polyethylene glycol-15 hydroxystearate (available from solutol)/80% water), then vortexed and sonicated to prepare 0.2 mg/mL clear solution, which was filtered by microporous membrane. In the oral administration group, 10% N-methyl pyrrolidone (NMP)/10% polyethylene glycol-15 hydroxy stearate (available from solutol)/80% water was used as a vehicle and mixed with the test compound, then vortexed and sonicated to prepare 0.40 mg/mL clear solution. The rats were given intravenous administration at a dose of 1 mg/kg or oral administration at a dose of 2 mg/kg. Whole blood was collected at a certain period of time to prepare the plasma. The drug concentration of the plasma was analyzed by LC-MS/MS method, and the pharmacokinetic parameters were calculated using Phoenix WinNonlin software (Pharsight Company, USA).

[2] = tested on: SD rats; experiment: Oral glucose tolerance test (OGTT) in rats, first time; type: in vivo; settings: first study, male SD rats, 10 mg/kg single intragastric administration; for OGTT blood glucose level AUC0-2 hr: glucose 2 g/kg; for Urine glucose level / Urine volume: urine 0-24 h
Protocol: Experimental Example 3. Study on In Vivo Efficacy of Oral Glucose Tolerance Test (OGTT) in Rats: Study on the In Vivo Efficacy of Oral Glucose Tolerance Test (OGTT) in Rats for the First Time
The experimental animals were allowed to adapt to the environment in the animal room for one week after they arrived.
The animals fasted in the metabolic cage for 18 hours, then were given drugs or vehicle (2 ml/kg) according to the above table, and subsequently were immediately given 50% glucose solution (2 g/kg, 4 ml/kg).
2 hours after the administration of glucose solution, feed intake was restored. Blood samples were taken at 0 min, 15 min, 30 min, 45 min, 60 min and 120 min respectively, and urine samples were collected at 0-24 h to test blood glucose, urine glucose (mg/200 g) and urine volume respectively.
All values are represented as averages. Statistical analysis was performed using Graphpad Prism 6 one-way analysis of variance and Tukey's multiple comparison test. P value of less than 0.05 is considered statistically significant.

[3] = tested on: db/db mice; experiment: Random blood glucose in diabetic db/db mice; type: in vivo; settings: mean±S.E.M.
Protocol: (§1) Experimental Example 4: Study on the In Vivo Pharmacodynamics in Diabetic Db/Db Mice
(§2) The animals were kept in an animal breeding room with strictly controlled environmental conditions after they arrived. The animal breeding room was maintained at a temperature of 20-24° C. and a humidity of 40-70%. The temperature and humidity in the feeding room were monitored in real time by a hygrothermograph, and the temperature and humidity were recorded twice daily (one in the morning and the other in the afternoon). The lighting of the animal feeding room was controlled by an on-off electronic timing system, with lights for 12 hours and dark for 12 hours daily (turned on at 7:00 a.m. and turned off at 19:00 p.m). The mice were raised in separate cages and were given free access to feed (reproductive feed 17053113 for rats and mice, available from Beijing Keao Xieli Feed Co., Ltd.) and water during the experiment.
(§3) During the experiment, the animals were administrated with the corresponding vehicles or drugs according to the group with an administration time of 16:00 and an administration period of 8 weeks.
(§4) The dose was 5 mg/kg from week 1 to week 4; and the dose was 10 mg/kg from week 5 to week 8.
(§5) Random and fasting blood glucose levels were measured once a week.
The random blood glucose level was measured at 10:00 a.m.
(§6) All of the data were entered into an Excel document and expressed in the form of mean±S.E.M. The differences between groups were compared using graphpad Prism 6 software and one-way analysis of variance (ANOVA). P value of less than 0.05 is considered a significant difference.

[4] = tested on: db/db mice; experiment: Fasting blood glucose in diabetic db/db mice; type: in vivo; settings: fasted from 10:00, mean±S.E.M.
Protocol: as §1, §2, §3, §4, §5
Fasting blood glucose test: The mice fasted from 10:00 a.m., and blood glucose level was firstly measured at 16:00. Then the mice were administered with the drugs, and 2 hours later blood glucose level was measured again, and then feed intake was restored.
as §6

[5] = tested on: db/db mice; experiment: Oral glucose tolerance test (OGTT) at week 8 in diabetic db/db mice; type: in vivo; settings: 5 mg/kg weeks 1-4, 10 mg/kg weeks 5-8, once daily, fasted 6 hours, glucose 2 g/kg, mean±S.E.M.
Protocol: as §1, §3, §4
At the end of the experiment (i.e. the last 3 days of administration), the animals fasted for 6 hours, then were given a single administration of glucose aqueous solution at a dose of 2 g/kg. The time of the glucose administration was recorded as 0 min. Blood glucose levels of the animals were detected at 0 min before the glucose administration, and 15 min, 30 min, 90 min and 120 min after the glucose administration, respectively. The glucose tolerance curve was drawn according to the data of blood glucose levels vs time, and the area under the curve (AUC) was calculated. The administration was given at 16:00.
as §6

[6] = tested on: db/db mice; experiment: Glycosylated hemoglobin (HbA1c) in diabetic db/db mice; type: in vivo; settings: for HbA1c (%): fasted 6 hours; for Rate of Decline of HbA1c (%): vs. vehicle control group
Protocol: as §1, §3, §4
At weeks 4 and 8 of the experiment, the animals fasted for 6 hours, and blood samples were collected to measure glycosylated hemoglobin.
as §6

[7] = Week 1, 5 mg/kg intragastric once daily
[8] = Week 2, 5 mg/kg intragastric once daily
[9] = Week 3, 5 mg/kg intragastric once daily
[10] = Week 4, 5 mg/kg intragastric once daily
[11] = Week 5, 10 mg/kg intragastric once daily (5 mg/kg weeks 1-4)
[12] = Week 6, 10 mg/kg intragastric once daily (5 mg/kg weeks 1-4)
[13] = Week 7, 10 mg/kg intragastric once daily (5 mg/kg weeks 1-4)
[14] = Week 8, 10 mg/kg intragastric once daily (5 mg/kg weeks 1-4)
[15] = Week 8, 5 mg/kg weeks 1-4, 10 mg/kg weeks 5-8, once daily

Row | Oral DNAUC (AUCPO/Dose) [1] | clearance [1] | half-life [1] | Vd [1] | bioavailability [1] | Cmax [1] | SMILES | OGTT blood glucose level AUC0-2 hr [2] | Urine glucose level [2] | Urine volume [2] | Random blood glucose [3, 7] | Random blood glucose [3, 8] | Random blood glucose [3, 9] | Random blood glucose [3, 10] | Random blood glucose [3, 11] | Random blood glucose [3, 12] | Random blood glucose [3, 13] | Random blood glucose [3, 14] | Fasting blood glucose [4, 7] | Fasting blood glucose [4, 8] | Fasting blood glucose [4, 9] | also measured
1 | 1823 nM · h/mpk | 10.1 mL/min/kg | 4.59 h | 3.86 L/kg | 59% | 410 nM | CS[C@H]1OC(c2ccc(Cl)c(Cc3ccc(C4=CCC(F)(F)CC4)cc3)c2)[C@H](O)[C@@H](O)[C@@H]1O (stereo partly drawn) [WXD001] | 832 mmol/L/min | 2181.4**** mg/200 g, BW | 37.58**** mL/200 gBW |  |  |  |  |  |  |  |  |  |  |  | 
2 | 1013 nM · h/mpk | 14.5 mL/min/kg | 2.56 h | 2.94 L/kg | 47.7% | 391 nM | CS[C@H]1O[C@@H](c2ccc(C)c(Cc3ccc(C4=CCC(F)(F)CC4)cc3)c2)[C@H](O)[C@@H](O)[C@@H]1O [WXD003] | 797 mmol/L/min | 1636.4**** mg/200 g, BW | 24.58 mL/200 gBW | 14.3 ± 2.28 | 15.7 ± 0.88 | 13.6 ± 1.40 | 13.3 ± 0.81 | 14.1 ± 1.28 | 10.1 ± 1.26 | 12.5 ± 1.23 | 14.4 ± 1.77 | 14.8 ± 2.34 | 19.9 ± 1.32 | 15.8 ± 1.48 | Fasting blood glucose [4, 10]: 14.3 ± 1.29; Fasting blood glucose [4, 11]: 17.4 ± 1.72; Fasting blood glucose [4, 12]: 10.9 ± 1.42; Fasting blood glucose [4, 13]: 11.7 ± 1.30; Fasting blood glucose [4, 14]: 13.0 ± 1.36; OGTT blood glucose level AUC0-2 hr [5]: 2810 ± 155 mmol/L/min; HbA1c (%) [6, 10]: 5.7*** %; Rate of Decline of HbA1c (%) [6, 10]: −32%; HbA1c (%) [6, 15]: 5.9**** %; Rate of Decline of HbA1c (%) [6, 15]: −39%
3 | 2320 nM · h/mpk | 8.06 mL/min/kg | 4.5 h | 2.48 L/kg | 56.4% | 356 nM | CCc1ccc([C@@H]2O[C@H](SC)[C@@H](O)[C@H](O)[C@H]2O)cc1Cc1ccc(C2=CCC(F)(F)CC2)cc1 [WXD010] |  |  |  | 16.7 ± 1.00 | 13.5 ± 2.46 | 14.1 ± 0.97 | 15.4 ± 1.34 | 13.2 ± 1.09 | 10.6 ± 1.48 | 9.8 ± 0.82 | 9.2 ± 0.68 | 14.7 ± 2.50 | 14.4 ± 1.47 | 15.8 ± 1.40 | Fasting blood glucose [4, 10]: 14.9 ± 1.24; Fasting blood glucose [4, 11]: 15.9 ± 0.79; Fasting blood glucose [4, 12]: 11.0 ± 1.67; Fasting blood glucose [4, 13]: 9.6 ± 0.91; Fasting blood glucose [4, 14]: 8.1 ± 0.51; OGTT blood glucose level AUC0-2 hr [5]: 2120 ± 99.2 mmol/L/min; HbA1c (%) [6, 10]: 5.8*** %; Rate of Decline of HbA1c (%) [6, 10]: −31%; HbA1c (%) [6, 15]: 5.1**** %; Rate of Decline of HbA1c (%) [6, 15]: −47%
